Reference: US11406655B2, “Once-daily treatment of pulmonary fibrosis” (Galecto Biotech AB, priority 2015, dated 2022)

How the values were obtained:
[1] = Radioisotope studies of lung deposition in mice; type: in vivo
[2] = GLP toxicokinetic studies, murine intravenous dosing; type: in vivo
[3] = First in Human single ascending dose phase I study: safety and tolerability; type: in vivo
Procedure: (§1) This study was a randomized, double-blind, single center, placebo-controlled, single ascending dose (SAD), phase I study to assess the safety, tolerability, PK (pharmacokinetics) and PD (pharmacodynamics) of the compound of formula I in 36 healthy male volunteers (HV's). 6 dose cohorts of 6 subjects were evaluated using a 4:2 ratio (active:placebo). The compound of formula I was delivered to the lungs of HV's using the RS01 Monodose Dry Powder Inhaler (Plastiape) at the following 6 doses: 0.15 mg, 1.5 mg, 3 mg, 10 mg, 20 mg and 50 mg. The 0.15 mg, 1.5 mg and 3 mg dose was a 3% w/w lactose blend, whereas the 10 mg, 20 mg and 50 mg dose was formulated as neat material. The specific capsule filling weights were 5 mg for the 0.15 mg dose, 50 mg for the 1.5 mg dose, 5 mg for the 10 mg dose and 50 mg for the 50 mg dose. HV's were housed overnight and vital signs, EKG, physical exam, urinalysis and laboratory bloods followed for 14 days. PK blood sampling was taken prior to dosing and then at intervals up to 48 hrs post-dose. Plasma samples for drug concentration measurements were analyzed by the Bioanalytical Unit at Simbec (UK). PK variables were determined using the non-compartmental analysis option in the software WinNONLIN 6.3 from Certara based in Princeton, N.J. 08540 (www.certara.com).

[4] = First in Human single ascending dose phase I study: plasma pharmacokinetics after inhalation; type: in vivo
Procedure: as §1

[5] = Particle size (MMAD) of the dry powder used in the study; type: physicochemical; details: dry powder of the study in the Experimental section
Procedure: When the compound of formula (I) is formulated as a dry powder it may be present in a suitable particle size selected from a mean mass aerodynamic diameter (MMAD) between 0.1 and 20 μm, such as a MMAD between 0.5 and 10 μm, such as between 1 and 5 μm, typically between 2 and 3 μm. In the study described in the Experimental section below the MMAD was measured to 2.5 μm.

Galectin-3 = Galectin-3 (Homo sapiens, UniProt P17931); details: 3 mg inhaled dose; from Cmax, mouse lung/circulation ratio and ex-vivo data in human derived macrophages
Sequence of Galectin-3 (P17931 whole entry): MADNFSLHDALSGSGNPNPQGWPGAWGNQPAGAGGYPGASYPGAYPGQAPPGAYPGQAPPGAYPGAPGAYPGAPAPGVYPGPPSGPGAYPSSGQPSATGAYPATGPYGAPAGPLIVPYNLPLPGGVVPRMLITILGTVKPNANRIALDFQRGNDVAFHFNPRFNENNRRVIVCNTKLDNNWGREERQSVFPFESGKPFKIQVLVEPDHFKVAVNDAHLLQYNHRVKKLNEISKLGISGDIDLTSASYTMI

For OC[C@H]1O[C@@H](S[C@@H]2O[C@H](CO)[C@H](O)[C@H](n3cc(-c4cccc(F)c4)nn3)[C@H]2O)[C@H](O)[C@@H](n2cc(-c3cccc(F)c3)nn2)[C@H]1O [compound of formula I, bis (3-deoxy-3-(3-fluorophenyl-1H-1,2,3-triazol-1-yl)-β-D-galactopyranosyl)-sulfane], the “concentration in the lung relative to the circulation” value [1] was “fifty times greater”, the “fraction of compound found in the feces” value [2] was about 90% and the tolerability ([3]; healthy male volunteers, single inhaled dose, all 6 doses (0.15 mg to 50 mg), RS01 dry powder inhaler) was “extremely well tolerated”. For the same compound, the “adverse events (severity)” value ([3]; healthy male volunteers, headache, cough and dose-related parageusia (neat blend only), self-limiting) was “only mild in nature”, the “changes from baseline in EKG, vital signs, bloods and urinalysis” value ([3]; up to 2 weeks post-dose) was “no significant changes from baseline” and the “dose dependence of drug concentrations based on Cmax and AUC” value ([4]; inhaled single ascending doses 0.15-50 mg) was “exhibited dose proportionality”. For the same compound, the Tmax ([4]; male, human, inhaled or intranasal, inhaled single dose, independent of dose) was 0.8 to 3 h, the half-life ([4]; male, human, inhaled or intranasal, inhaled single dose, read-out: t½ (converted)) was 12 h and the “mean mass aerodynamic diameter (MMAD)” value [5] was 2.5 μm. The “local concentration in the lung in man in excess of that required to suppress Galectin-3 in lung target cells” value (Galectin-3) was 2 fold.
